target: full-length recombinant human FYN A (Homo sapiens (Human), UniProt P06241); test: ADP-Glo Kinase Assay of FYN kinase inhibition; type: biochemical; conditions: primary screen, initial compounds
Excerpt: The chemical library was comprised of the SoftFocus ATP-competitive hinge binding compounds described by Harris, C. J., Hill, R. D., Sheppard, D. W., et al., The Design and Application of Target-Focused Compound Libraries. Combinatorial Chemistry and High Throughput Screening 14:521-31 (2011). The specific pharmacore chemistries included SFK52 comprising 6-[R2]-3-[R1]imidazo[1,2-b] pyridazine compounds, SFK33 comprising N-(3-[R2] imidazo [1,2-b] pyridazin-6-yl) [R1] amine compounds, SFK49 comprising N-(5-[R2] imidazo [2,1-b][1,3,4] thiadiazol-2-yl)[R1]-amine compounds, SFK 40 comprising 5-[R2]-3-[R1] pyridin-2-amine compounds, SFK43 comprising 6-[R2]-3-[R1]imidazo[1,2-a]pyrazine compounds, and SFK63. The chemical structures of the initial 600 potential kinase inhibitors are presented in Table 3, with those chosen for additional analysis presented in Table 4. Comparison of the compounds presented in Table 1 and those of Tables 2, 3 and 4, illustrate the novelty of the chemical structures claimed herein.
FYN kinase (10 micrograms) was from the FYN A Kinase Enzyme System (V3571, Promega UK Ltd.), a full-length recombinant human FYN A containing an N-terminal GST tag of about 85 kDa, expressed by bacullovirus in […] insect cells, supplied at a concentration of 0.1 microgram/microliter in 5×reaction buffer. The FYN substrate, a 12 amino acid peptide of the sequence […], containing a single tyrosine phosphorylation site, was custom synthesized (Peptide Synthetics, Peptide Protein Research, Fareham, UK) and supplied as a 4 mg/ml aqueous solution. All other reagents were obtained from Sigma (Sigma-Aldrich, Gillingham, Dorset, UK), with the exception of UltraPure ATP (V9102, Promega UK Ltd.) and the ATP-competitive broad spectrum protein kinase inhibitor staurosporine (569397, Merck Millipore, Watford, Hertfordshire, UK), or as otherwise indicated.
The assay procedure determines the IC50 of each potential FYN kinase inhibitor by measuring the enzyme catalyzed ATP-dependent phosphorylation of the FYN substrate peptide. The ADP-Glo™ Kinase Assay is specifically designed to quantify kinase activity by measuring the ADP produced in the reaction The reaction buffer comprises 40 mM Tris.HCl (pH 7.5), 20 mM MgCl2, 0.1 mg/ml BSA and 5 microM DTT. Individual compounds within the chemical library were dissolved in DMSO at known concentrations. Briefly, 2.5 microliters of reaction buffer containing 3 picograms of FYN kinase and serial dilutions of each potential FYN kinase inhibitor (9 3-fold dilutions of a 10 micromolar top sample) are placed into each well of a 384 well microtiter plate and incubated at room temperature for 30 minutes. An additional 2.5 microliters of reaction buffer containing 100 picograms of the FYN substrate and 12.5 picomoles of ATP are then added to each well and the reaction carried out for 90 minutes at room temperature. The reactions are terminated by addition of 5 microliters of the ADP-Glo™ Reagent component of the ADP-Glo™ Kinase Assay kit to each well. The ADP-Glo™ Reagent comprises an ATP-dependent adenylate cyclase, an inorganic pyrophosphatase and an excess of staurosporine. The adenylate cyclase converts the remaining ATP to cAMP and pyrophospahte, the pyrophosphatase converts the pyrophosphate to phosphate and the staurosporine inhibits the activity of the FYN kinase, the net effect is to remove all residual ATP while preserving the ADP produced by FYN kinase. The terminated reactions are incubated for 40 minutes at room temperature, prior to addition of the Kinase Detection Reagent component of the ADP-Glo™ Kinase Assay kit to each well. The Kinase Detection Reagent comprises pyruvate kinase, phosphoenol pyruvate (PEP), luciferin and luciferase. The pyruvate kinase converts PEP to pyruvate and in the process generates ATP from the residual ADP present in the terminated reaction. […]

Chain of full-length recombinant human FYN A (P06241 whole entry): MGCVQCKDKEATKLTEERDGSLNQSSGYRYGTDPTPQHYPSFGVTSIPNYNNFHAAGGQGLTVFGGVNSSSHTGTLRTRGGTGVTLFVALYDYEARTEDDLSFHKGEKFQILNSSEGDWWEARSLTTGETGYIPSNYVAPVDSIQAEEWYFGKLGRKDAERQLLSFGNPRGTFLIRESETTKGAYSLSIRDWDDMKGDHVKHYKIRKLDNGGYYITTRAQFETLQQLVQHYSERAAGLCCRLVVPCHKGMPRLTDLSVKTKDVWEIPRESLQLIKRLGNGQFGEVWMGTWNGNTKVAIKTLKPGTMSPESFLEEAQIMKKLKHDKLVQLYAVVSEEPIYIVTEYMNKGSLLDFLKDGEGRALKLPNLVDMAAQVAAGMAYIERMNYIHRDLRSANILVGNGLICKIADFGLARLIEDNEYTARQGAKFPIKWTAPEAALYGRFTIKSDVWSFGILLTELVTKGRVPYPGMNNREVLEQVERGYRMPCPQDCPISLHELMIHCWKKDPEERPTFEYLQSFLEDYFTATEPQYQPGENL

Structure (SMILES) | IC50
COc1ccc(-c2cncc(-c3cccc(NC(C)=O)c3)n2)cc1 [035_0081_0280, N-[3-[6-(4-methoxyphenyl)pyrazin-2-yl]phenyl] acetamide] | 3.5 µM
CC(=O)Nc1cccc(-c2cncc(-c3cccc(O)c3)n2)c1 [035_0081_0284, N-[3-[6-(3-hydroxyphenyl)pyrazin-2-yl]phenyl] acetamide] | 3.88 µM
CCC(CO)Nc1cncc(-c2ccc(O)cc2)n1 (stereo not drawn) [035_0153_0080, 4-[6-[1-(hydroxymethyl)propylamino]pyrazin-2-yl]phenol] | 15.3 µM
CCC(CO)Nc1cncc(-c2cc(C(C)C)ccc2OC)n1 (stereo not drawn) [035_0153_0286, 2-[[6-(5-isopropyl-2-methoxy-phenyl)pyrazin-2-yl]amino]butan-1-ol] | 11.8 µM
CCC(CO)Nc1cncc(-c2ccc(N)cc2)n1 (stereo not drawn) [035_0153_0333, 2-[[6-(4-aminophenyl)pyrazin-2-yl]amino]butan-1-ol] | 21.1 µM
Nc1cccc(-c2cncc(NCc3ccccc3)n2)c1 [035_0232_0005, 6-(3-aminophenyl)-N-benzyl-pyrazin-2-amine] | 6.68 µM
COc1ccc(-c2cncc(-c3cccc(C(=O)NCCCN(C)C)c3)n2)cc1 [035_0280_0302, N-[3-(dimethylamino)propyl]-3-[6-(4-methoxyphenyl)pyrazin-2-yl]benzamide] | 9.06 µM
COc1ccc(-c2cncc(-c3ccc(O)c(OC)c3)n2)cc1 [035_0280_0314, 2-methoxy-4-[6-(4-methoxyphenyl)pyrazin-2-yl]phenol] | 5.18 µM
COc1cc(Nc2cncc(-c3cccc(NC(C)=O)c3)c2)cc(OC)c1OC [081_0087_0081, N-[3-[5-(3,4,5-trimethoxyanilino)-3-pyridyl]phenyl] acetamide] | 0.391 µM
C[C@@H](c1ccccc1)n1c(=O)[nH]c2ncc(-c3cccc(C(=O)N(C)C)c3)nc21 [170_0148_0349, N,N-dimethyl-3-[2-oxo-3-[(1S)-1-phenylethyl]-1H-imidazo[4,5-b]pyrazin-5-yl]benzamide] | 1.78 µM
COc1cccc(Cn2c(=O)[nH]c3ncc(-c4cc(OC)c(OC)c(OC)c4)nc32)c1 [170_4313_0087, 3-[(3-methoxyphenyl)methyl]-5-(3,4,5-trimethoxy-phenyl)-1H-imidazo[4,5-b]pyrazin-2-one] | 23.4 µM
CN(C)c1cccc(-c2cnc(Nc3ccc(N4CCOCC4)cc3)c3nccn23)c1 [184_0088_0135, 5-[3-(dimethyl-amino)phenyl]-N-(4-morpholino-phenyl) imidazo[1,2-a]pyrazin-8-amine] | 2.7 µM
COCCNc1ccc2ncc(-c3ccsc3)n2n1 [229_0033_0074, N-(2-methoxy-ethyl)-3-(3-thienyl)imidazo [1,2-b]pyridazin-6-amine] | 5.23 µM
COCCNc1ccc2ncc(-c3ccc(OC)c(OC)c3)n2n1 [229_0033_0079, 3-(3,4-dimethoxy-phenyl)-N-(2-methoxyethyl) imidazo[1,2-b]pyridazin-6-amine] | 1.55 µM
COCCNc1ccc2ncc(-c3ccc(F)cc3)n2n1 [229_0033_0339, 3-(4-fluoro-phenyl)-N-(2-methoxyethyl) imidazo[1,2-b]pyridazin-6-amine] | 4 µM
c1ccc(-c2cnc3ccc(NCc4ccco4)nn23)cc1 [229_0144_0061, N-(2-furylmethyl)-3-phenyl-imidazo[1,2-b]pyridazin-6-amine] | 6.38 µM
COc1cc(-c2cnc3ccc(NCc4ccco4)nn23)cc(OC)c1OC [229_0144_0086, N-(2-furylmethyl)-3-(3,4,5-trimethoxyphenyl) imidazo[1,2-b]pyridazin-6-amine] | 4.9 µM
O=C(O)c1ccc(-c2cnc3ccc(NCc4ccco4)nn23)cc1 [229_0144_0140, 4-[6-(2-furylmethyl-amino)imidazo[1,2-b]pyridazin-3-yl]benzoic acid] | 3.88 µM

Structure (SMILES) | IC50
COc1ccc(-c2cnc3ccc(NCc4ccco4)nn23)cc1 [229_0144_0280, N-(2-furyl-methyl)-3-(4-methoxyphenyl) imidazo[1,2-b]pyridazin-6-amine] | 3.68 µM
Nc1cccc(-c2cnc3ccc(NCc4cccs4)nn23)c1 [229_0146_0005, 3-(3-aminophenyl)-N-(2-thienyimethyl) imidazo[1,2-b]pyridazin-6-amine] | 1.79 µM
COc1cc(-c2cnc3ccc(NCc4cccs4)nn23)cc(OC)c1OC [229_0146_0087, N-(2-thienylmethyl)-3-(3,4,5-trimethoxyphenyl) imidazo[1,2-b]pyridazin-6-amine] | 3.1 µM
COc1ccc(-c2cnc3ccc(NCc4cccs4)nn23)cc1 [229_0146_0280, 3-(4-methoxyphenyl)-N-(2-thienylmethyl) imidazo[1,2-b]pyridazin-6-amine] | 5.39 µM
Oc1cccc(-c2cnc3ccc(NCc4cccs4)nn23)c1 [229_0146_0284, 3-[6-(2-thienylmethyl-amino)imidazo[1,2-b]pyridazin-3-yl]phenol] | 1.7 µM
OCc1ccc(-c2cnc3ccc(NCc4cccs4)nn23)cc1 [229_0146_0285, [4-[6-(2-thienylmethyl-amino)imidazo[1,2-b]pyridazin-3-yl]phenyl] methanol] | 1.09 µM
Nc1ccc(-c2cnc3ccc(NCc4cccs4)nn23)cc1 [229_0146_0333, 3-(4-amino-phenyl)-N-(2-thienylmethyl) imidazo[1,2-b]pyridazin-6-amine] | 5.42 µM
Fc1ccc(-c2cnc3ccc(NCc4cccs4)nn23)cc1 [229_0146_0339, 3-(4-fluoro-phenyl)-N-(2-thienylmethyl) imidazo[1,2-b]pyridazin-6-amine] | 3.28 µM
COc1cccc(-c2cnc3ccc(NCc4cccs4)nn23)c1 [229_0146_4140, 3-(3-methoxyphenyl)-N-(2-thienylmethyl) imidazo[1,2-b]pyridazin-6-amine] | 2.95 µM
CC(=O)c1cccc(-c2cnc3ccc(NCc4cccs4)nn23)c1 [229_0146_4145, 1-[3-[6-(2-thienylmethyl-amino)imidazo[1,2-b]pyridazin-3-yl]phenyl] ethanone] | 0.441 µM
CCC(CO)Nc1ccc2ncc(-c3cc(OC)c(OC)c(OC)c3)n2n1 (stereo not drawn) [229_0153_0087, 2-[[3-(3,4,5-trimethoxy-phenyl)imidazo[1,2-b]pyridazin-6-yl]amino] butan-1-ol] | 1.28 µM
CCC(CO)Nc1ccc2ncc(-c3ccc(OC)cc3)n2n1 (stereo not drawn) [229_0153_0280, 2-[[3-(4-methoxyphenyl)imidazo[1,2-b]pyridazin-6-yl]amino] butan-1-ol] | 1.28 µM
CCC(CO)Nc1ccc2ncc(-c3ccc(CO)cc3)n2n1 (stereo not drawn) [229_0153_0285, 2-[[3-[4-(hydroxy-methyl)phenyl]imidazo[1,2-b]pyridazin-6-yl]amino]butan-1-ol] | 2.47 µM
CCC(CO)Nc1ccc2ncc(-c3ccc(OC)nc3)n2n1 (stereo not drawn) [229_0153_0311, 2-[[3-(6-methoxy-3-pyridyl)imidazo [1,2-b]pyridazin-6-yl]amino] butan-1-ol] | 2.37 µM
CCC(CO)Nc1ccc2ncc(-c3cccc(OC)c3)n2n1 (stereo not drawn) [229_0153_4140, 2-[[3-(3-methoxyphenyl)imidazo[1,2-b]pyridazin-6-yl]amino]butan-1-ol] | 1.55 µM
CCC(CO)Nc1ccc2ncc(-c3cccs3)n2n1 (stereo not drawn) [229_0153_4147, 2-[[3-(2-thienyl)imidazo [1,2-b]pyridazin-6-yl]amino] butan-1-ol] | 3.97 µM
COc1ccc(-c2cnc3ccc(NCc4cccc(Cl)c4)nn23)cc1 [229_0223_0280, N-[(3-chlorophenyl)methyl]-3-(4-methoxyphenyl) imidazo[1,2-b]pyridazin-6-amine] | 10.7 µM
OCc1cccc(-c2cnc3ccc(NCc4cccc(Cl)c4)nn23)c1 [229_0223_0291, [3-[6-[(3-chlorophenyl)methylamino]imidazo[1,2-b]pyridazin-3-yl]phenyl] methanol] | 5.11 µM

From US10688093B2, “Methods, compositions, and uses of novel Fyn kinase inhibitors” (priority 2015, dated 2020)
